# According to patent publication US20230338396A1, “CANNABIDIOL AS A T[…] FOR COVID-19” (AUGUSTA UNIVERSITY RESEARCH INSTITUTE, INC., priority 2020, published 2023):
# “Also recorded” adds a separate entry of the source.
# Assays:
# Poly(I:C)-induced ARDS [1] = format: in vivo, C57BL/6 mice; conditions: CBD 5 mg/kg intraperitoneal
# Poly(I:C)-induced ARDS [2] = assay: Poly(I:C)-induced ARDS in mice, apelin modulation by CBD (Example 2); format: in vivo, C57Bl/6 mice; conditions: CBD 5 mg/kg intraperitoneal, 3 doses, after Poly(I:C)
# Acute Lung Injury (ALI) = assay: Inhaled CBD in Acute Lung Injury (ALI)/ARDS murine model with Poly(I:C); format: in vivo
# T cells = assay: CBD inhalers in healthy young and older subjects, T cells; format: in vivo; conditions: CBD inhaler, 20 mg of CBD for 120 min
# [3] = inhaled CBD compared to CBD injection
# [4] = inhaled CBD, Poly(I:C)-treated mice
smiles,measurement,setting,value
"C=C(C)[C@@H]1CCC(C)=C[C@H]1c1c(O)cc(CCCCC)cc1O [CBD, cannabidiol]",expression of IL-6 in lung (immunohistochemistry),"Poly(I:C)-induced ARDS [1]; 3 doses, after Poly(I:C)",reduced the expression of IL-6
same,frequencies of neutrophils in the lung (immunohistochemistry),"Poly(I:C)-induced ARDS [1]; 3 doses, after Poly(I:C)",lowered the frequencies of neutrophils in the lung
same,inflammatory indices overall (flow cytometry of blood and lung),"Poly(I:C)-induced ARDS [1]; 3 doses, after Poly(I:C)",reversed all these inflammatory indices and partially re-established homeostasis
same,"lung structural damage and symptoms (inflammatory infiltrate, fibrosis, hypertrophy, pulmonary edema; H&E histology)","Poly(I:C)-induced ARDS [1]; 3 doses, after Poly(I:C)",improves lung structure and function; also recorded: totally or partially reversed and returned to the level and condition of the normal
same,"level of proinflammatory cytokines in blood (IL-6, IFNγ, TNFα)",Poly(I:C)-induced ARDS [1]; blood,reducing the number of neutrophils and monocytes as well as the level of proinflammatory cytokines significantly
same,number of neutrophils and monocytes in blood (flow cytometry),Poly(I:C)-induced ARDS [1]; blood,reducing the number of neutrophils and monocytes
same,lymphocyte frequencies in blood (flow cytometry),"Poly(I:C)-induced ARDS [1]; blood, p<0.01",enhanced the rate of lymphocyte frequencies markedly
same,number of infiltrating neutrophils and macrophages in lung (flow cytometry),Poly(I:C)-induced ARDS [1]; lung,downregulated the number of infiltrating neutrophils and macrophages markedly
same,level of cytokines in lung (flow cytometry),"Poly(I:C)-induced ARDS [1]; lung, p<0.05",reduced the level of cytokines significantly
same,T cells in whole blood (flow cytometry),Poly(I:C)-induced ARDS [2]; blood,returned decreased T cells and increased neutrophils towards the normal level
same,apelin expression in blood (flow cytometry),Poly(I:C)-induced ARDS [2]; blood,normalized the expression level of apelin in the blood; also recorded: enhanced expression of apelin in the blood
same,neutrophils in whole blood (flow cytometry),Poly(I:C)-induced ARDS [2]; blood,returned decreased T cells and increased neutrophils towards the normal level
same,apelin expression in lung tissue (immunofluorescence),Poly(I:C)-induced ARDS [2]; lung,normalized the apelin expression in the lung tissues; also recorded: increased apelin expression towards control levels
same,"pathological features of lung (histology, Masson's trichrome)",Poly(I:C)-induced ARDS [2]; lung,completely or partially abolished
same,IL-6 production in lung tissue,Acute Lung Injury (ALI); [3],further down regulate IL-6 production
same,activated infiltrating leukocytes,Acute Lung Injury (ALI); [3],decreased activated infiltrating leukocytes
same,destruction of lung (H&E),Acute Lung Injury (ALI); [4],able to prevent further destruction of lung
same,frequencies of T cells (lymphopenia) in peripheral blood and lung tissue,Acute Lung Injury (ALI); [4],able to reinstate the frequencies of T cells
same,effects on T cells frequencies or functionality,T cells,no negative effects
